From US20260022114A1, “N-(5-SUBSTITUTED-[(1,3,4-THIADIAZOLYL) OR (1,3-THIAZOLYL)](SUBSTITUTED)CARBOXAMIDE COMPOUNDS, PHARMACEUTICAL COMPOSITIONS, AND METHODS OF PREPARING THE AMIDE COMPOUNDS AND OF THEIR USE” (Repare Therapeutics Inc., priority 2022, published 2026)

Each compound was assayed against PolQ ATPase enzyme (1-894) (Homo sapiens (Human), UniProt O75417) (assay: Polθ ATPase enzymatic assay (0.5 nM enzyme concentration), ADP-Glo). Settings: 0.5 nM PolQ ATPase enzyme (1-894); average IC50.
Type: biochemical
Procedure: PolQ ATPase enzyme (1-894) at 0.5 nM is incubated with a 10-point concentration response of inhibitors for 15 min at rt in the following buffer: 50 mM Tris Cl pH 7.5, 10% glycerol, 5 mM DTT, 10 mM MgCl2, 0.1 mg/ml BSA. Following pre-incubation with inhibitors, DNA (Fork C) at 20 nM and ATP at 100 μM are added to start the reaction. Enzymatic reaction proceeds at rt for 180 min. ATP consumption is measured using the ADP-Glo assay from Promega. Luminescence is read on the Envision and IC50 are determined using the variable slope 4-parameters equation.
Oligos are annealed by heating at 95° C. for 5 min in the following buffer (10 mM Tris-HCl PH7.5, 50 mM NaCl, 1 mM EDTA) and cooled to rt. […]

Chain of PolQ ATPase enzyme (1-894) (O75417 1-894): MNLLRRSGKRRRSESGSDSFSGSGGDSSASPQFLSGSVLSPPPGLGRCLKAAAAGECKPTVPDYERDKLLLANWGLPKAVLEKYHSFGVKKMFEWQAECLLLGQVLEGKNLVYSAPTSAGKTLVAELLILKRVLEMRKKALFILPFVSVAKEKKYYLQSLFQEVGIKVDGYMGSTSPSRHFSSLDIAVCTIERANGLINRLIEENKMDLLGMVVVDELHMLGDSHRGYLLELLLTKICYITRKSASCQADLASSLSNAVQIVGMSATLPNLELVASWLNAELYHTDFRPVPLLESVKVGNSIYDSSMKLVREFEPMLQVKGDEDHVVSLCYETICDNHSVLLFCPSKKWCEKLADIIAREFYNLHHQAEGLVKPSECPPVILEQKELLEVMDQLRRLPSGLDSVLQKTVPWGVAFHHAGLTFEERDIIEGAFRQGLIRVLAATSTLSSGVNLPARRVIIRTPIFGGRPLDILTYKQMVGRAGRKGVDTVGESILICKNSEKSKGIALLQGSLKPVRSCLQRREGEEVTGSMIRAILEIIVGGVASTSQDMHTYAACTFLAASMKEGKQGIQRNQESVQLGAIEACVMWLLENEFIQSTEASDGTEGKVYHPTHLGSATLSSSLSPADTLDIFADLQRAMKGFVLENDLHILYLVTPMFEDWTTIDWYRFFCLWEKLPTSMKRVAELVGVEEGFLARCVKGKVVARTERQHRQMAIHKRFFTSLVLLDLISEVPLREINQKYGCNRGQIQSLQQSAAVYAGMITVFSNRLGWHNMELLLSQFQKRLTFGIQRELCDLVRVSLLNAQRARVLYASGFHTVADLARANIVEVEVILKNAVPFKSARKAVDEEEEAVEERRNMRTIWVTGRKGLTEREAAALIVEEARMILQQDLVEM

IC50 | Compound
0.34 nM | COc1cnc(C(F)F)cc1-c1cc(-n2ccc(C)cc2=O)ncc1C(=O)Nc1nnc([C@H]2C[C@@H]2C2CC2)s1 (racemic) [Compound 580]
5.8 nM | C#C[C@H]1CC1c1nnc(NC(=O)c2cnc(CC#N)cc2-c2cc(C(F)F)ncc2OC)s1 (stereo partly drawn) [Compound 190]
< 0.25 nM | C#C[C@H]1C[C@@H]1c1nnc(NC(=O)c2cnc(-n3cc(C)ccc3=O)cc2-c2cc(C(F)F)ncc2OC)s1 [Compound 546]
0.8 nM | COc1cnc(C(F)(F)F)cc1-c1cnccc1C(=O)Nc1nnc(C2C[C@H]2c2ccc(C#N)cc2)s1 (stereo partly drawn) [Compound 90]
< 0.25 nM | COc1cnc(C(F)F)cc1-c1cc(-n2ccc(C3CCOCC3)cc2=O)ncc1C(=O)Nc1nnc(C#CC2CC2)s1 [Compound 506]
0.32 nM | COc1cnc(C(F)F)cc1-c1cc(-c2ccc[nH]c2=O)ncc1C(=O)Nc1nnc(C#CC2CC2)s1 [Compound 484]
0.35 nM | C#C[C@H]1CC1c1nnc(NC(=O)c2cnc(-n3ncc(C)cc3=O)cc2-c2cc(C(F)F)ncc2OC)s1 (single isomer, unassigned) [Compound 632]
5.8 nM | Cc1nnc(Cn2cc(-c3cc(C(F)F)ccc3Cl)c(C(=O)Nc3nc(C)c(C#CC4CC4)s3)cc2=O)o1 [Compound 199]
< 0.25 nM | CC#C[C@H]1CC1c1nnc(NC(=O)c2cnc(-n3cccc(F)c3=O)cc2-c2cc(C(F)F)ncc2OC)s1 (mixture of isomers) [Compound 638]
0.95 nM | COc1cnc(C(F)F)cc1-c1cc(-n2cccc(Cl)c2=O)ncc1C(=O)Nc1nnc([C@H]2C[C@@H]2C(F)(F)F)s1 [Compound 607]
< 0.25 nM | COc1cnc(C(F)F)cc1-c1cc(-n2ccc(N)cc2=O)ncc1C(=O)Nc1nnc(C#CC2CC2)s1 [Compound 488]
< 0.25 nM | COc1cnc(C(F)F)cc1-c1cc(C#CC2(N)CC2)ncc1C(=O)Nc1nnc(C#CC2CC2)s1 [Compound 554]
21 nM | COc1cnc(C(F)F)cc1-c1cc(C#CCn2cc(C)cn2)ncc1C(=O)Nc1nnc(C#CC2CC2)s1 [Compound 599]
0.95 nM | COc1cnc(C(F)F)cc1-c1cc(-n2ccc(C)cc2=O)ncc1C(=O)Nc1nnc([C@H]2C[C@@H]2C(F)(F)F)s1 [Compound 534]
1.4 nM | C#Cc1nnc(NC(=O)c2cnc(-n3ccc(C)cc3=O)cc2-c2cc(C(F)F)ncc2OC)s1 [Compound 518]
< 0.25 nM | COC(=O)c1ccn(-c2cc(-c3cc(C(F)F)ncc3OC)c(C(=O)Nc3nnc(C#CC4CC4)s3)cn2)c(=O)c1 [Compound 496]
1.15 nM | COc1cnc(C(F)F)cc1-c1cc(C#CC(C)(C)N2CC(C)(C)C2)ncc1C(=O)Nc1nnc(C#CC2CC2)s1 [Compound 560]
51 nM | COc1cnc(C(F)F)cc1-c1cc(C=C=CN2CCOCC2=O)ncc1C(=O)Nc1nnc(C#CC2CC2)s1 [Compound 543]
0.93 nM | COc1cnc(Cl)cc1-c1cnccc1C(=O)Nc1nnc(C2C[C@H]2c2ccc(C#N)c(C)c2)s1 (stereo partly drawn) [Compound 287]
4.9 nM | COc1cnc(C(F)F)cc1-c1cc(C#CC(C)(C)O)ncc1C(=O)Nc1nnc([C@H]2C[C@@H]2C)s1 (racemic) [Compound 619]
< 0.25 nM | C#C[C@H]1C[C@@H]1c1nnc(NC(=O)c2cnc(-n3ccc(OC4COC4)cc3=O)cc2-c2cc(C(F)F)ncc2OC)s1 [Compound 617]
< 0.25 nM | COc1cnc(C(F)F)cc1-c1cc(-n2ccc(C)cc2=O)ncc1C(=O)Nc1nnc(C#CC2CC23CC3)s1 (racemic) [Compound 557]
0.73 nM | COc1cnc(C(F)F)cc1-c1cc(-n2ccc(N3CCN(C)CC3)cc2=O)ncc1C(=O)Nc1nnc(C#CC2CC2)s1 [Compound 535]

IC50 | Compound
0.4 nM | COc1cc(C)ncc1-c1cc(-c2cc(C(F)F)ncc2OC)c(C(=O)Nc2nnc(C#CC3CC3)s2)cn1 [Compound 489]
1.1 nM | C#C[C@H]1C[C@@H]1c1nnc(NC(=O)c2cnc(N3CCN(C)C4(CC4)C3=O)cc2-c2cc(C(F)F)ncc2OC)s1 [Compound 574]
< 0.25 nM | COc1cnc(C(F)F)cc1-c1cc(-n2cccc(C)c2=O)ncc1C(=O)Nc1nnc(C#CC2CCOCC2)s1 [Compound 494]
0.99 nM | COc1cnc(C(F)F)cc1-c1cc(N(C)c2nnc(C)o2)ccc1C(=O)Nc1nnc(C#CC2CC2)s1 [Compound 118, N-(5-(cyclopropylethynyl)-1,3,4-thiadiazol-2-yl)-2-(2-(difluoromethyl)-5-methoxypyridin-4-yl)-4-(methyl (5-methyl-1,3,4-oxadiazol-2-yl)amino)benzamide]
0.81 nM | COc1cnc(C(F)F)cc1-c1cc(C#CCN2CCCC2=O)ncc1C(=O)Nc1nnc([C@H]2C[C@@H]2C)s1 (racemic) [Compound 618]
1.1 nM | COc1cnc(C(F)F)cc1-c1cc(-n2ccc(C)cc2=O)ncc1C(=O)Nc1nnc([C@H]2C[C@@H]2C)s1 [Compound 545]
1.7 nM | COc1cnc(C(F)F)cc1-c1cc(-n2ccc(C)cc2=O)ncc1C(=O)Nc1nnc(C2CC2)s1 [Compound 532]
< 0.25 nM | COc1cnc(C(F)F)cc1-c1cc(N2CC3CC(C3)C2=O)ncc1C(=O)Nc1nnc(C#CC2CC2)s1 (racemic) [Compound 381]
1.5 nM | COc1cnc(C(F)F)cc1-c1cc(C#CC(C)(C)N2CCN(C)CC2)ncc1C(=O)Nc1nnc(C#CC2CC2)s1 [Compound 549]
0.27 nM | COc1cnc(C(F)F)cc1-c1cc(N2CCN(C=O)C3(CC3)C2=O)ncc1C(=O)Nc1nnc(C#CC2CC2)s1 [Compound 520]
0.87 nM | COc1cnc(C(F)F)cc1-c1c(C(=O)Nc2nnc(C#CC3CC3)s2)ccc(-c2ccn(C)n2)c1F [Compound 385]
0.76 nM | COc1ccc(C(F)(F)F)cc1-c1cnccc1C(=O)Nc1nnc(C2C[C@H]2c2ccc(C#N)cc2)s1 (stereo partly drawn) [Compound 30]
1.1 nM | COc1cnc(C(F)F)cc1-c1cc(-n2ccc(OC3CCN(C)C3)cc2=O)ncc1C(=O)Nc1ncc(C#CC2CC2)s1 (racemic) [Compound 615]
1.9 nM | COc1cnc(C(F)F)cc1-c1cc(C2C[C@@H]2C(=O)N(C)C)ncc1C(=O)Nc1nnc(C#CC2CC2)s1 (mixture of isomers) [Compound 361]
0.3 nM | C#C[C@H]1C[C@@H]1c1nnc(NC(=O)c2cnc(-n3ccc(N4CC5(COC5)C4)cc3=O)cc2-c2cc(C(F)F)ncc2OC)s1 [Compound 627]
0.25 nM | CNC(=O)Cn1cc(-c2cc(C(F)(F)F)ccc2OC)c(C(=O)Nc2nnc(C3C[C@H]3c3ccc(C#N)cc3)s2)cc1=O (stereo partly drawn) [Compound 92]
4.3 nM | COc1cnc(C(F)F)cc1-c1cc(-n2ccc(C)cc2=O)ncc1C(=O)Nc1nnc(C2CC(C)(C)C2)s1 [Compound 567]
0.51 nM | COc1cnc(C(F)F)cc1-c1cc(-n2ccc(C)cc2=O)ncc1C(=O)Nc1nnc([C@H]2C[C@@H]2c2cnn(C)c2)s1 (racemic) [Compound 584]
1.9 nM | COc1cnc(C(F)F)cc1-c1cc(N2CCN(C)CC2=O)ccc1C(=O)Nc1ncc(C#CC2CC2)s1 [Compound 217]
1.2 nM | COc1cnc(C(F)F)cc1-c1cc(-n2ccc(OC3CCN(C)CC3)cc2=O)ncc1C(=O)Nc1nnc(C#CC2CC2)s1 [Compound 611]
0.45 nM | COc1cnc(C(F)F)cc1-c1cc(C#CCN2CC[S+]([O-])CC2)ncc1C(=O)Nc1nnc(C#CC2CC2)s1 [Compound 596]
3.5 nM | C#C[C@H]1C[C@@H]1c1nnc(NC(=O)c2cnc(-n3ccc(OC4CCN(C)C4)cc3=O)cc2-c2cc(C(F)F)ncc2OC)s1 (single isomer, unassigned) [Compound 626]
